Values quoted from earlier work in patent US6004969A (National Science Council, priority 1997, dated 1999).

Key:
[1] = oral administration; words
animal paw swelling = conditions: topical use; words

SMILES | first pass effect [1] | gastrointestinal absorption [1] | inhibition of animal paw swelling (animal paw swelling)
CO[C@]12CC[C@@]3(C[C@@H]1[C@](C)(O)C(C)(C)C)[C@H]1Cc4ccc(O)c5c4[C@@]3(CCN1CC1CC1)[C@H]2O5 [Buprenorphine, 21-cyclo-propylmethyl-7-α-[(S)-1-hydroxy-1,2,2-trimethylpropyl]-6,14-endoethano-6,7,8,14-tetrahydroripavine] | high first pass effect | poor gastrointestinal absorption | 
CC1(C)[C@@H](O)CC[C@]2(C)[C@H]3C(=O)C=C4[C@@H]5C[C@@](C)(C(=O)O)CC[C@]5(C)CC[C@@]4(C)[C@]3(C)CC[C@@H]12 [glycyrrhetinic acid] |  |  | can inhibit animal paw swelling
CC1(C)[C@@H](O[C@H]2O[C@H](C(=O)O)[C@@H](O)[C@H](O)[C@H]2O[C@@H]2O[C@H](C(=O)O)[C@@H](O)[C@H](O)[C@H]2O)CC[C@]2(C)[C@H]3C(=O)C=C4[C@@H]5C[C@@](C)(C(=O)O)CC[C@]5(C)CC[C@@]4(C)[C@]3(C)CC[C@@H]12 [glycyrrhizic acid] |  |  | can inhibit animal paw swelling
